Assays:
MDA-MB-231 cells = test: MTT antiproliferative assay, MDA-MB-231; format: cell-based, human; settings: read-out: Cytotoxicity IC50, MDA-MB-231, 72 h
MCF-7 cells = test: MTT antiproliferative assay, MCF-7; format: cell-based, human; settings: read-out: Cytotoxicity IC50, MCF-7, 72 h
4T1 cells = test: MTT antiproliferative assay, 4T1; format: cell-based, mouse; settings: read-out: Cytotoxicity IC50, 4T1, 72 h
MCF-10A cells = test: MTT antiproliferative assay, MCF-10A; format: cell-based, human; settings: read-out: Cytotoxicity IC50, 72 h
HeLa cells = test: MTT antiproliferative assay, HeLa; format: cell-based; settings: read-out: Cytotoxicity IC50, 72 h
p-STING = test: Immunohistochemistry of primary tumor tissue; format: in vivo, mouse; settings: 5 mg kg^−1 intratumoral, IHC

## N.N.[Cl][Pt][Cl] [Cisplatin]
MDA-MB-231 cells
  IC50: 20.2 ± 5.6 µM
MCF-7 cells
  IC50: 18.3 ± 5.74 µM
4T1 cells
  IC50: 25.5 ± 2.52 µM
MCF-10A cells
  IC50: 15.5 ± 4.33 µM
HeLa cells
  IC50: 8.35 ± 0.86 µM
p-STING
  Expression of p-STING on primary tumors: can't activate the STING pathway in vivo

Reference: paper PMC12670118 (Chemical Science, 2025)
